Test results reported in US8148391B2 (Cephalon, Inc., priority 2006, dated 2012).
pIC50: −log10 of the molar value. Like-named read-outs stand apart in the source and are kept apart here. One block for each molecule: values may come before it.

Legend:
[1] = molecular target: T1, c-Met (cytoplasmic domain) (Homo sapiens, UniProt P08581); experiment: c-Met Kinase Assay (same methods as for ALK, with modifications); format: biochemical
T1 construct: 10 ng/mL c-Met (cytoplasmic domain, Invitrogen Corporation #PV3143); purchased Invitrogen Corporation PV3143
How it was run: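 Europium-labeled PT66 antibody (Eu-N1) detects substrate phosphorylation on wells coated with phospholipase C-γ at 10 μg/mL. The kinase, the cytoplasmic domain of c-Met at 10 ng/mL, starts the reaction, which proceeds 15 minutes at 37° C.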

[2] = molecular target: T2, baculovirus-expressed ALK (Homo sapiens, UniProt Q9UM73); experiment: ALK Kinase Assay (ELISA-type, time-resolved fluorescence); format: biochemical
T2 construct: host or cells: baculovirus expression system
How it was run: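 Plates coated with phospholipase C-γ substrate (10 μg/mL in TBS); reaction started with 30 ng/ml ALK and run 15 min at 37° C. Phosphorylated substrate detected with Eu-N1-labeled PT66 antibody. IC50 from sigmoidal variable-slope fit of percent inhibition vs log concentration.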

[3] = c-Met kinase inhibition, 1 μM ATP (Km level), read-out: cMet Activity
[4] = ALK kinase inhibition, 1 μM ATP (Km level), read-out: ALK Activity
[5] = 1 μM ATP (Km level), read-out: cMet Activity (c-Met Kinase Inhibition, IC50)
[6] = 1 μM ATP (Km level), read-out: ALK Activity (ALK Kinase Inhibition, IC50)
[7] = c-Met kinase inhibition, 1 μM ATP, read-out: cMet Activity
[8] = ALK kinase inhibition, 1 μM ATP, read-out: ALK Activity
[9] = 1 μM ATP (Km level), 10 ng/mL c-Met, read-out: cMet Activity (c-Met kinase inhibition, IC50 class)
[10] = 1 μM ATP (Km level), 30 ng/ml ALK, 37° C., 15 minutes, read-out: ALK Activity (ALK kinase inhibition, IC50 class)

T2 sequence (Q9UM73 19-1620): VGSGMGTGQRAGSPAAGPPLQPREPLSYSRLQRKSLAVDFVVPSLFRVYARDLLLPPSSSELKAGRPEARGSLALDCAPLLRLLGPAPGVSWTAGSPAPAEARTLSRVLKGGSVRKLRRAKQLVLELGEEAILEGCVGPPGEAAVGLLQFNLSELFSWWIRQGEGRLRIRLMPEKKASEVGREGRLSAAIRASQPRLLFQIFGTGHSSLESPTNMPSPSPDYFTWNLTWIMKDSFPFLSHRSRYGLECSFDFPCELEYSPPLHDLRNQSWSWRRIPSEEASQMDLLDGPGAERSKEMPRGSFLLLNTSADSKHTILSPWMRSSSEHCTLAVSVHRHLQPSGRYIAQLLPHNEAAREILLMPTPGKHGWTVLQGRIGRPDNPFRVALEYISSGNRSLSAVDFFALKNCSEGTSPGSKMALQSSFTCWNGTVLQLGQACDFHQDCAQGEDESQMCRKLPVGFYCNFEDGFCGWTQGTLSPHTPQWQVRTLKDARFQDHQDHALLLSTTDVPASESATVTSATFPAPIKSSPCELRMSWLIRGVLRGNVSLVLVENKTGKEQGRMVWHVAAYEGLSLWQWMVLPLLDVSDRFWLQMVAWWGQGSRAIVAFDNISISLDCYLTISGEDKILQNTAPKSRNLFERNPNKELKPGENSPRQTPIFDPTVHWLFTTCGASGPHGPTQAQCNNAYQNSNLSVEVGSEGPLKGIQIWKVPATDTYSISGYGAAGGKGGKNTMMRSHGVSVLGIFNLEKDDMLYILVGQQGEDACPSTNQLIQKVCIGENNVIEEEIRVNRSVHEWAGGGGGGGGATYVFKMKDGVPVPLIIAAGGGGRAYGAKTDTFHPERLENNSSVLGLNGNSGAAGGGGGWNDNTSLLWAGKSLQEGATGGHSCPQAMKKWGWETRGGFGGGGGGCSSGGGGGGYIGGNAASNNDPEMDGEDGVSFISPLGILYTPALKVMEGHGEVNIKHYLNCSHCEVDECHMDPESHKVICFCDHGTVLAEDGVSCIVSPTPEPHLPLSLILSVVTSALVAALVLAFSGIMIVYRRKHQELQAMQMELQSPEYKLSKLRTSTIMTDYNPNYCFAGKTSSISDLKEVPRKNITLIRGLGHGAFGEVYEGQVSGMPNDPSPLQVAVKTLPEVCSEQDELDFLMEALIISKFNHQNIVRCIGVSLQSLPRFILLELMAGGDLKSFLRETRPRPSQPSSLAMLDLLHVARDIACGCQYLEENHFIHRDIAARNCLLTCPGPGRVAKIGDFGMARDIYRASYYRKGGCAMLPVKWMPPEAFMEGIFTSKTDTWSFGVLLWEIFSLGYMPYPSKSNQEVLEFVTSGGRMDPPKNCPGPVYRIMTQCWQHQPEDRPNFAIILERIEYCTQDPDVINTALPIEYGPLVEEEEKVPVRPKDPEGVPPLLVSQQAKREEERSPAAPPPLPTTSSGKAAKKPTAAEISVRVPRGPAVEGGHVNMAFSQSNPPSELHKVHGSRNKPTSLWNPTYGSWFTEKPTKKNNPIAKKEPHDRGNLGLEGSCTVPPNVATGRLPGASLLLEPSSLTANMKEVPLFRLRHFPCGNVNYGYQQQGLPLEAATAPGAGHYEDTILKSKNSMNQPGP
T1 sequence (P08581 956-1390 limits assumed): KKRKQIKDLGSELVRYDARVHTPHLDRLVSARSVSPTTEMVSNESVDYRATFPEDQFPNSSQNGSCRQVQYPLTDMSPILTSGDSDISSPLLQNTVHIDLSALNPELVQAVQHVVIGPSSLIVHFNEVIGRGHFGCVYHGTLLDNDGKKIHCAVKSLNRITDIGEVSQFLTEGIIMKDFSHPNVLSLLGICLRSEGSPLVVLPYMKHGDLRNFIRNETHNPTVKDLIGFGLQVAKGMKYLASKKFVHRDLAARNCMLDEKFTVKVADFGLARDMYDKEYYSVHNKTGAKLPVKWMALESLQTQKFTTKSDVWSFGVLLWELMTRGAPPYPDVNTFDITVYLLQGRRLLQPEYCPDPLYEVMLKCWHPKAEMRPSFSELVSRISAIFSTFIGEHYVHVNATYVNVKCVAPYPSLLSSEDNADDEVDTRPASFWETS

pIC50 [1, 3]: 6.00 to 7.00
pIC50 [2, 4]: > 7.00
Compound: Cn1ccnc1-c1ccccc1Nc1nc(Nc2ccc3c(c2)CCC(=O)CC3)ncc1Cl [Example 217, 2-{5-Chloro-4-[2-(1-methyl-1H-imidazol-2-yl)-phenylamino]-pyrimidin-2-ylamino}-5,6,8,9-tetrahydro-benzocyclohepten-7-one]

pIC50 [1, 5]: > 7.00
pIC50 [2, 6]: > 7.00
Compound: CCN1CCc2ccc(Nc3ncc(Cl)c(Nc4ccccc4OCC#N)n3)cc2CC1 [Example 928, {2-[5-Chloro-2-(3-ethyl-2,3,4,5-tetrahydro-1H-benzo[d]azepin-7-ylamino)-pyrimidin-4-ylamino]-phenoxy}-acetonitrile]

pIC50 [1, 5]: < 5.00
pIC50 [2, 6]: > 7.00
Compound: COc1cc2c(cc1Nc1ncc(F)c(Nc3ccc(N4CCN(C)CC4)cc3OC)n1)CCN(CC(=O)N(C)C)CC2 [Example 793, 2-(7-{5-Fluoro-4-[2-methoxy-4-(4-methyl-piperazin-1-yl)-phenylamino]-pyrimidin-2-ylamino}-8-methoxy-1,2,4,5-tetrahydro-benzo[d]azepin-3-yl)-N,N-dimethyl-acetamide]

Compound: COCCN1C2CCC1c1cc(Nc3ncc(Cl)c(Nc4ccccc4NS(C)(=O)=O)n3)ccc1C2 (stereo not shown) [Example 76, N-(2-{5-Chloro-2-[12-(2-methoxy-ethyl)-12-aza-tricyclo[7.2.1.0*2,7*]dodeca-2(7),3,5-trien-4-ylamino]-pyrimidin-4-ylamino}-phenyl)-methanesulfonamide]
pIC50 [1, 3]: 6.00 to 7.00
pIC50 [2, 4]: > 7.00

pIC50 [1, 7]: 6.00 to 7.00
pIC50 [2, 8]: > 7.00
Compound: COCCN1CCc2ccc(Nc3ncc(Cl)c(Nc4ccccc4S(=O)(=O)C(C)C)n3)cc2CC1 [Example 1685, 5-Chloro-N*2*-[3-(2-methoxy-ethyl)-2,3,4,5-tetrahydro-1H-benzo[d]azepin-7-yl]-N*4*-[2-(propane-2-sulfonyl)-phenyl]-pyrimidine-2,4-diamine]

pIC50 [1, 5]: 5.00 to 6.00
pIC50 [2, 6]: > 7.00
Compound: CS(=O)(=O)N[C@@H]1CCCC[C@H]1Nc1nc(Nc2ccc3c(c2)CNCCO3)ncc1Cl [Example 524, N-{(1R,2R)-2[5-Chloro-2-(2,3,4,5-tetrahydro-benzo[f]oxazepin-7-ylamino)-pyrimidin-4-ylamino]-cyclohexyl}-methanesulfonamide]

pIC50 [1, 7]: < 5.00
pIC50 [2, 8]: > 7.00
Compound: COCCN1CC(=O)Nc2cc(Nc3ncc(Cl)c(N[C@H]4[C@@H](C(N)=O)[C@@H]5C=C[C@H]4C5)n3)c(OC)cc2C1 [Example 1665, (1S,2S,3R,4R)-3-{5-Chloro-2-[7-methoxy-4-(2-methoxy-ethyl)-2-oxo-2,3,4,5-tetrahydro-1H-benzo[e][1,4]diazepin-8-ylamino]-pyrimidin-4-ylamino}-bicyclo[2.2.1]hept-5-ene-2-carboxylic acid amide]

pIC50 [1, 9]: 5.00 to 6.00
pIC50 [2, 10]: 6.00 to 7.00
Compound: COCCN1CCc2ccc(Nc3ncc(Cl)c(N[C@@H]4CCCC[C@H]4N(CC#N)S(C)(=O)=O)n3)cc2CC1 [Example 1383, N-((1R,2R)-2-{5-Chloro-2-[3-(2-methoxy-ethyl)-2,3,4,5-tetrahydro-1H-benzo[d]azepin-7-ylamino]-pyrimidin-4-ylamino}-cyclohexyl)-N-cyanomethyl-methanesulfonamide]

pIC50 [1, 5]: < 5.00
pIC50 [2, 6]: > 7.00
Compound: CNC(=O)CN1CCc2cc(Nc3ncc(Cl)c(Nc4ccc(N5CCN(C)CC5)cc4OC)n3)c(OC)cc2CC1 [Example 783, 2-(7-{5-Chloro-4-[2-methoxy-4-(4-methyl-piperazin-1-yl)-phenylamino]-pyrimidin-2-ylamino}-8-methoxy-1,2,4,5-tetrahydro-benzo[d]azepin-3-yl)-N-methyl-acetamide]

pIC50 [1, 9]: < 5.00
pIC50 [2, 10]: > 7.00
Compound: COc1cc2c(cc1Nc1ncc(Cl)c(Nc3ccc(N4CCOCC4)cc3OC)n1)CCN(Cc1ncco1)CC2 [Example 1180, 5-Chloro-N*4*-(2-methoxy-4-morpholin-4-yl-phenyl)-N*2*-(8-methoxy-3-oxazol-2-ylmethyl-2,3,4,5-tetrahydro-1H-benzo[d]azepin-7-yl)-pyrimidine-2,4-diamine]

pIC50 [1, 3]: 6.00 to 7.00
pIC50 [2, 4]: > 7.00
Compound: COCCN1CCc2ccc(Nc3ncc(Cl)c(NC4C5CCC(C5)C4C(N)=O)n3)cc2CC1 (stereo not drawn) [Example 177, (2-exo,3-exo)-3-{5-Chloro-2-[3-(2-methoxy-ethyl)-2,3,4,5-tetrahydro-1H-benzo[d]azepin-7-ylamino]-pyrimidin-4-ylamino}-bicyclo[2.2.1]heptane-2-carboxylic acid amide]

pIC50 [1, 9]: 6.00 to 7.00
pIC50 [2, 10]: > 7.00
Compound: COCCN1CCc2ccc(Nc3ncc(Cl)c(Nc4c(F)cccc4C(N)=O)n3)cc2CC1 [Example 1257, 2-{5-Chloro-2-[3-(2-methoxy-ethyl)-2,3,4,5-tetrahydro-1H-3-benzazepin-7-ylamino]-pyrimidin-4-ylamino}-3-fluoro-benzamide]

pIC50 [1, 5]: < 5.00
pIC50 [2, 6]: > 7.00
Compound: COc1c(Nc2ncc(Cl)c(Nc3ccccc3S(=O)(=O)C(C)C)n2)ccc2c1CCCC(NCCO)C2 (stereo not shown) [Example 961, 2-(2-{5-Chloro-4-[2-(propane-2-sulfonyl)-phenylamino]-pyrimidin-2-ylamino}-1-methoxy-6,7,8,9-tetrahydro-5H-benzocyclohepten-6-ylamino)-ethanol]

pIC50 [1, 5]: 6.00 to 7.00
pIC50 [2, 6]: > 7.00
Compound: CCN1CCN(CC)c2cc(Nc3ncc(Cl)c(Nc4ccccc4-n4cccn4)n3)ccc2C1 [Example 725, 5-Chloro-N(2)-(1,4-diethyl-2,3,4,5-tetrahydro-1H-benzo[e][1,4]diazepin-8-yl)-N(4)-(2-pyrazol-1-yl-phenyl)-pyrimidine-2,4-diamine]

pIC50 [1, 7]: > 7.00
pIC50 [2, 8]: > 7.00
Compound: COCCN1CCc2ccc(Nc3ncc(Cl)c(Nc4ccccc4S(=O)(=O)N4CCC(O)C4)n3)cc2CC1 (stereo not shown) [Example 1492, 1-(2-{5-Chloro-2-[3-(2-methoxy-ethyl)-2,3,4,5-tetrahydro-1H-benzo[d]azepin-7-ylamino]-pyrimidin-4-ylamino}-benzenesulfonyl)-pyrrolidin-3-ol]

pIC50 [1, 3]: > 7.00
pIC50 [2, 4]: > 7.00
Compound: CNC(=O)c1ccccc1Nc1nc(Nc2ccc3c(c2)N(C)CCN(C)C3=O)ncc1Cl [Example 413, 2-[5-Chloro-2-(1,4-dimethyl-5-oxo-2,3,4,5-tetrahydro-1H-benzo[e][1,4]diazepin-8-ylamino)-pyrimidin-4-ylamino]-N-methylbenzamide]

pIC50 [1, 5]: < 5.00
pIC50 [2, 6]: > 7.00
Compound: CCN1CCc2cc(Nc3ncc(Cl)c(N[C@H]4[C@@H](C(N)=O)[C@@H]5C=C[C@H]4C5)n3)c(OC)cc2CC1 [Example 773, (1S,2S,3R,4R)-3-[5-Chloro-2-(3-ethyl-8-methoxy-2,3,4,5-tetrahydro-1H-benzo[d]azepin-7-ylamino)-pyrimidin-4-ylamino]-bicyclo[2.2.1]hept-5-ene-2-carboxylic acid amide]

pIC50 [1, 3]: 6.00 to 7.00
pIC50 [2, 4]: > 7.00
Compound: CN1C(=O)CCC(C)(C)c2cc(Nc3ncc(Cl)c(N[C@H]4[C@@H](C(N)=O)[C@@H]5C=C[C@H]4C5)n3)ccc21 (relative stereo) [Example 386, (2-exo, 3-exo)-3-[5-Chloro-2-(1,5,5-trimethyl-2-oxo-2,3,4,5-tetrahydro-1H-benzo[b]azepin-7-ylamino)-pyrimidin-4-ylamino]-bicyclo[2.2.1]hept-5-ene-2-carboxylic acid amide]

pIC50 [1, 5]: < 5.00
pIC50 [2, 6]: > 7.00
Compound: COc1cc2c(cc1Nc1ncc(Cl)c(N[C@H]3[C@@H](C(N)=O)[C@@H]4C=C[C@H]3C4)n1)CCN(CC(F)F)CC2 [Example 806, (1S,2S,3R,4R)-3-{5-Chloro-2-[3-(2,2-difluoro-ethyl)-8-methoxy-2,3,4,5-tetrahydro-1H-benzo[d]azepin-7-ylamino]-pyrimidin-4-ylamino}-bicyclo[2.2.1]hept-5-ene-2-carboxylic acid amide]

pIC50 [1, 7]: < 5.00
pIC50 [2, 8]: 5.00 to 6.00
Compound: CNC(=O)c1ccccc1Nc1nc(Nc2c(OC)ccc3c2CCOC(=O)N3C)ncc1Cl [Example 1517, 2-[5-Chloro-2-(2-methoxy-5-methyl-6-oxo-5,6,8,9-tetrahydro-7-oxa-5-aza-benzocyclohepten-1-ylamino)-pyrimidin-4-ylamino]-N-methyl-benzamide]

pIC50 [1, 5]: 6.00 to 7.00
pIC50 [2, 6]: > 7.00
Compound: CNC(=O)[C@H]1[C@@H](Nc2nc(Nc3ccc4c(c3)CCN(CCOC)CC4)ncc2Cl)[C@@H]2C=C[C@H]1C2 (relative stereo) [Example 615, (2-exo-3-exo)-3-{5-Chloro-2-[3-(2-methoxy-ethyl)-2,3,4,5-tetrahydro-1H-benzo[d]azepin-7-ylamino]-pyrimidin-4-ylamino}-bicyclo[2.2.1]hept-5-ene-2-carboxylic acid methylamide]

pIC50 [1, 9]: < 5.00
pIC50 [2, 10]: > 7.00
Compound: COCCOc1ccc(Nc2nc(Nc3cc4c(cc3OC)CCN(CC(=O)N(C)C)CC4)ncc2Cl)c(S(=O)(=O)C(C)C)c1 [Example 1189, 2-(7-{5-Chloro-4-[4-(2-methoxy-ethoxy)-2-(propane-2-sulfonyl)-phenylamino]-pyrimidin-2-ylamino}-8-methoxy-1,2,4,5-tetrahydro-benzo[d]azepin-3-yl)-N,N-dimethyl-acetamide]

pIC50 [1, 9]: > 7.00
pIC50 [2, 10]: > 7.00
Compound: CNC(=O)c1cc(F)cc(F)c1Nc1nc(Nc2ccc3c(c2)NC(=O)CCC3)ncc1Cl [Example 1278, 2-[5-Chloro-2-(2-oxo-2,3,4,5-tetrahydro-1H-1-benzazepin-8-ylamino)-pyrimidin-4-ylamino]-3,5-difluoro-N-methyl-benzamide]
